Source: patent publication US9783537B2, “3-(4-ethylnylphenyl) pyridopyrimidinone compounds and process for preparation thereof useful as potential anticancer agents” (Council of Scientific & Industrial Research, priority 2013, dated 2017)
Where two headings read alike, the source gives them in different places.

Key:
TK-10 = assay: SRB 48 h growth assay, Renal TK-10; assay type: cell-based, human; details: TK-10, Renal
HCT-116 = assay: SRB 48 h growth assay, Colon HCT-116; assay type: cell-based, human; details: HCT-116, Colon
CCRF-CEM = assay: SRB 48 h growth assay, Leukemia CCRF-CEM; assay type: cell-based, human
NCI/ADR-RES = assay: SRB 48 h growth assay, Ovarian NCI/ADR-RES; assay type: cell-based, human
786-0 = assay: SRB 48 h growth assay, Renal 786-0; assay type: cell-based, human; details: 786-0, Renal
MCF7 = assay: SRB 48 h growth assay, Breast MCF7; assay type: cell-based, human
PC-3 = assay: SRB 48 h growth assay, Prostate PC-3; assay type: cell-based, human; details: PC-3, Prostate
MDA-MB-435 = assay: SRB 48 h growth assay, Melanoma MDA-MB-435; assay type: cell-based, human; details: MDA-MB-435, Melanoma
HOP-62 = assay: SRB 48 h growth assay, Non-small Cell Lung HOP-62; assay type: cell-based, human; details: HOP-62, Non-small Cell Lung
HOP-92 = assay: SRB 48 h growth assay, Non-small Cell Lung HOP-92; assay type: cell-based, human; details: HOP-92, Non-small Cell Lung
[1] = test system: seven ovarian cancer cell lines (IGROV1, OVCAR-3, OVCAR-4, OVCAR-5, OVCAR-8, NCI/ADR-RES and SK-OV-3); assay: in vitro anticancer activity, ovarian panel; assay type: cell-based; details: Homo sapiens, exposure at least 48 h, read-out: GI50, range over panel
[2] = test system: six breast cancer cell line (MCF-7, MDA-MB-231/ATCC, HS 578T, TD-47D, MDA-MB-468 and BT-549); assay: in vitro anticancer activity, breast panel; assay type: cell-based; details: Homo sapiens; six breast cancer cell lines, exposure at least 48 h; read-out: GI50, range over panel
KM12 = assay: SRB 48 h growth assay, Colon KM12; assay type: cell-based, human
LOX IMVI = assay: SRB 48 h growth assay, Melanoma LOX IMVI; assay type: cell-based, human
[3] = in vitro anticancer activity, non-small cell lung panel; assay type: cell-based; details: Homo sapiens; nine non-small cell lung cancer cell lines, exposure at least 48 h; read-out: GI50, range over panel
[4] = test system: six leukemia cancer cell lines (CCRF-CEM, HL-60, K-562, MOLT-4, SR and RPMI-8226); assay: in vitro anticancer activity, leukemia panel; assay type: cell-based; details: Homo sapiens, exposure at least 48 h, read-out: GI50, range over panel
SK-OV-3 = assay: SRB 48 h growth assay, Ovarian SK-OV-3; assay type: cell-based, human; details: SK-OV-3, Ovarian
OVCAR-3 = assay: SRB 48 h growth assay, Ovarian OVCAR-3; assay type: cell-based, human; details: OVCAR-3, Ovarian
[5] = test system: seven colon cancer cell line (COLO 205, HCC-2998, HCT-116, HCT-15, HT29, KM12 and SW-620); assay: in vitro anticancer activity, colon panel; assay type: cell-based; details: Homo sapiens; seven colon cancer cell lines, exposure at least 48 h; read-out: GI50, range over panel
[6] = in vitro anticancer activity, melanoma panel; assay type: cell-based; details: Homo sapiens; nine melanoma cell lines, exposure at least 48 h; read-out: GI50, range over panel
UACC-257 = assay: SRB 48 h growth assay, Melanoma UACC-257; assay type: cell-based, human; details: UACC-257, Melanoma
ACHN = assay: SRB 48 h growth assay, Renal ACHN; assay type: cell-based, human
SK-MEL-5 = assay: SRB 48 h growth assay, Melanoma SK-MEL-5; assay type: cell-based, human; details: SK-MEL-5, Melanoma
NCI-H23 = assay: SRB 48 h growth assay, Non-small Cell Lung NCI-H23; assay type: cell-based, human
HS578T = assay: SRB 48 h growth assay, Breast HS578T; assay type: cell-based, human
BT-549 = assay: SRB 48 h growth assay, Breast BT-549; assay type: cell-based, human; details: BT-549, Breast
NCI-H522 = assay: SRB 48 h growth assay, Non-small Cell Lung NCI-H522; assay type: cell-based, human
[7] = Homo sapiens, read-out: Growth Inhibition GI50
[8] = Homo sapiens, read-out: Log10 GI50 (converted)
[9] = Homo sapiens, read-out: Log10 LC50 (converted)

In the case of `C#Cc1ccc(-n2c(/C=C/c3ccc(O)cc3)nc3ncccc3c2=O)cc1` [4b, (E)-3-(4-Ethynylphenyl)-2-(4-hydroxystyryl)pyrido[2,3-d]pyrimidin-4(3H)-one], the GI50 (TK-10; [7]) is reported as 8.78 µM, the GI50 (TK-10; [8]) is reported as 8.71 µM and the CC50 (TK-10; [9]) is reported as over 100 µM. The “Log10 TGI50” value (TK-10) was −4.16, the “Log10 TGI50” value (HCT-116) was over −4.00 and the GI50 (HCT-116; [7]) was 5.07 µM. For the same compound, the GI50 (HCT-116; [8]) was 5.01 µM, the CC50 (HCT-116; [9]) was over 100 µM and the “Log10 TGI50” value (CCRF-CEM) was over −4.00. For the same compound, the CC50 (CCRF-CEM; Homo sapiens, CCKF-CEM, read-out: Log10 LC50 (converted)) was over 100 µM, the GI50 (CCRF-CEM; [7]) was 3.3 µM and the GI50 (CCRF-CEM; [8]) was 3.31 µM. The “Log10 TGI50” value (NCI/ADR-RES) was over −4.00, the GI50 (NCI/ADR-RES; [7]) was 5.28 µM and the GI50 (NCI/ADR-RES; [8]) was 5.25 µM. For the same compound, the CC50 (NCI/ADR-RES; [9]) was over 100 µM, the “Log10 TGI50” value (786-0) was over −4.30 and the GI50 (786-0; [7]) was 4.88 µM. The GI50 (786-0; [8]) was 4.9 µM, the CC50 (786-0; [9]) was over 100 µM and the “Log10 TGI50” value (MCF7) was over −4.00. It also gave a GI50 (MCF7; [7]) of 3.04 µM, a GI50 (MCF7; [8]) of 3.02 µM and a CC50 (MCF7; [9]) of over 100 µM. For the same compound, the GI50 (PC-3; [7]) was 3.87 µM, the GI50 (PC-3; [8]) was 3.89 µM and the CC50 (PC-3; [9]) was over 100 µM. The “Log10 TGI50” value (PC-3) was −4.32, the GI50 (MDA-MB-435; [7]) was 1.6 µM and the GI50 (MDA-MB-435; [8]) was 1.58 µM. For the same compound, the CC50 (MDA-MB-435; [9]) was over 100 µM, the “Log10 TGI50” value (MDA-MB-435) was −5.39 and the “Log10 TGI50” value (HOP-62) was −4.25. The GI50 (HOP-62; [7]) was 5.66 µM, the GI50 (HOP-62; [8]) was 5.62 µM and the CC50 (HOP-62; [9]) was over 100 µM. For the same compound, the “Log10 TGI50” value (HOP-92) was −4.77, the GI50 (HOP-92; [7]) was 1.8 µM and the GI50 (HOP-92; [8]) was 1.82 µM. It also gave a CC50 (HOP-92; [9]) of over 100 µM, a GI50 [1] of 2.33 to 9.67 µM and a GI50 [2] of 2.83 to 5.85 µM. For the same compound, the “Log10 TGI50” value (KM12) was −4.22, the GI50 (KM12; [7]) was 3.81 µM and the GI50 (KM12; [8]) was 3.8 µM. For the same compound, the CC50 (KM12; [9]) was over 100 µM, the “Log10 TGI50” value (LOX IMVI) was over −4.00 and the GI50 (LOX IMVI; [7]) was 5.35 µM. The GI50 (LOX IMVI; [8]) was 5.37 µM, the CC50 (LOX IMVI; [9]) was over 100 µM and the GI50 [3] was 2.31 to 17.3 µM. For the same compound, the GI50 [4] was 3.58 to 5.55 µM, the GI50 (SK-OV-3; [7]) was 3.38 µM and the GI50 (SK-OV-3; [8]) was 3.39 µM. For the same compound, the CC50 (SK-OV-3; [9]) was over 100 µM, the “Log10 TGI50” value (SK-OV-3) was −4.54 and the GI50 (OVCAR-3; [7]) was 2.41 µM. For the same compound, the GI50 (OVCAR-3; [8]) was 2.4 µM, the CC50 (OVCAR-3; [9]) was over 72.4 µM and the “Log10 TGI50” value (OVCAR-3) was −5.24. It also gave a GI50 [5] of 3.19 to 27.5 µM, a GI50 [6] of 1.78 to 34.6 µM and a GI50 (UACC-257; [7]) of 6.3 µM. The GI50 (UACC-257; [8]) was 6.31 µM, the CC50 (UACC-257; [9]) was over 100 µM and the “Log10 TGI50” value (UACC-257) was over −4.00. For the same compound, the “Log10 TGI50” value (ACHN) was over −4.00, the GI50 (ACHN; [7]) was 6.31 µM and the GI50 (ACHN; [8]) was 6.31 µM. The CC50 (ACHN; [9]) was over 100 µM, the GI50 (SK-MEL-5; [7]) was 2.24 µM and the GI50 (SK-MEL-5; [8]) was 2.24 µM. The CC50 (SK-MEL-5; [9]) was over 100 µM, the “Log10 TGI50” value (SK-MEL-5) was −5.13 and the “Log10 TGI50” value (NCI-H23) was over −4.00. The GI50 (NCI-H23; [7]) was 5.52 µM, the GI50 (NCI-H23; [8]) was 5.5 µM and the LC50 (NCI-H23; [9]) was over 100 µM. The “Log10 TGI50” value (HS578T) was −4.52, the GI50 (HS578T; Homo sapiens, Hs-578T, read-out: Growth Inhibition GI50) was 3.24 µM and the GI50 (HS578T; Homo sapiens, Hs-578T, read-out: Log10 GI50 (converted)) was 3.24 µM. The CC50 (HS578T; Homo sapiens, Hs-578T, read-out: Log10 LC50 (converted)) was over 100 µM, the “Log10 TGI50” value (BT-549) was −4.06 and the GI50 (BT-549; [7]) was 7.51 µM. The GI50 (BT-549; [8]) was 7.59 µM, the CC50 (BT-549; [9]) was over 100 µM and the “Log10 TGI50” value (NCI-H522) was −5.22. It also gave a GI50 (NCI-H522; [7]) of 2 µM, a GI50 (NCI-H522; [8]) of 2 µM and a CC50 (NCI-H522; [9]) of over 100 µM.
